Experimental data as given in patent US10149836B2, “Isoxazole treatments for frontotemporal dementia” (The Board of Regents of the University of Texas System, priority 2014, dated 2018).

Legend:
progranulin promoter = assay: Luciferase reporter assay in Neuro2A #48 cells (human GRN start codon fused to firefly luciferase); format: cell-based, mouse; details: for Luciferase activity over DMSO control: Neuro2A #48 cells, 24 hrs after compound addition, increasing concentrations
Protocol: Plasmids and Cell Lines. The firefly luciferase coding sequence was fused by bacterial recombination to the authentic human GRN start codon in exon 2 (NM_002087.2) on a bacterial artificial chromosome (BACPAC RP11-812N09), and stably transfected Neuro-2a cells were derived.
Library Screening and Luciferase Reporter Assays. Neuro-2a cells were assayed in 384-well plates (3000 cells/well). 6 hrs after cell plating, 1200 Prestwick Chemical Library® compounds in DMSO, including internal controls, were dispensed using a BioMek FX system to final concentrations of 2.5 μM compound and 1% DMSO (unless indicated otherwise). Sodium butyrate (9 mM) was used as a positive control on each plate for initial screening. Luciferase activity was measured 24 hr after compound addition using Bright-Glo™ reagent (20 μl/well; Promega). Each well was normalized to the average luminescence from DMSO-treated wells on the same plate.
Technical details of HTS screen. Cell type used: Neuro-2a #48 cell line was cultured in DMEM (High glucose)/10%FBS/Pen-Strep/Zeocin (200 μg/mL) and plated in same media without Zeocin. All media is sterile filtered before use. The firefly luciferase coding sequence was fused by bacterial recombination to the authentic human GRN start codon in exon 2 (NM_002087.2) on a bacterial artificial chromosome (BACPAC RP11-812N09), and stably transfected Neuro-2a cells were derived (Cenik et al., 2011). Cells are put into single cell suspension and strained with 70 μm cell strainers before counting. The concentration of cells is adjusted to 150,000 cells/ml.
384 well plates were used for the assay: 50 μL of the cell suspension are added to each well for a final cell number per well of 7,500. Plates are spun down after plating and incubated at 37° C. under 5% CO2. Compound addition takes place 4 hours after plating. Test compounds are in columns 3-22. The vehicle control wells are in columns 2 and 23. The positive control, SAHA (3 μM), is plated in column 1 An untreated control (no DMSO) is in column 24. The plates are assayed for reporter activity 24 hrs after compound addition. All media is spun out of the plates and 20 μL of bright glo is added to each well and placed on shaker for 3-5 minutes. After shaking, plates are read and check from increases in activation over DMSO. Vehicle (DMSO) was used for baseline because it causes a slight activation of luciferase construct. […] All compounds were added from DMSO stocks and added at 0.5 μL per well (1% DMSO). All plates are read on an EnVision multilabel plate reader in luminescence mode. The data is then parsed into GeneData Screener v11 and quality controlled visually. Z′ values are calculated using the DMSO and SAHA controls. Plates that have a Z′ value less than 0.45 are further scrutinized. If the latter show systematic effects or if known errors occurred in these plates, they are repeated in a separate experiment. Data are then normalized and analyzed as previously described (Kim et al., 2013).

Progranulin [1] = assay: Progranulin protein expression in primary rat neurons (immunoblot, densitometric quantitation); format: cell-based; details: 24 hours, two concentrations
Protocol: FIGS. 1A-B. Neuro2A #48 cells show a marked increase in Progranulin levels due to Isoxazole treatment after 24 hours. (FIG. 1A) Cells were treated with Isoxazole in increasing concentrations ranging from 10 nM to 25 μM. […] (FIG. 1B) Primary rat neurons were treated for 24 hours with DMSO and two concentrations of Isoxazole to visualize the increase in Progranulin protein expression in the relevant in vivo cell type. […] Lower band: actin control. Bands at ˜75 kDa: Progranulin monomer. HMW bands: Progranulin multimers. Densitometric quantitation is shown on the right.
Immunoblotting and Quantification. […] Mouse progranulin was detected with linker-3 anti-progranulin antibody at 1:5000 dilution, β-actin with anti-β-actin antibody (Sigma A2228) at 1:5000 dilution, human progranulin with anti-PC cell-derived growth factor antibody (Invitrogen) at 1:1000 dilution, and GAPDH with anti-GAPDH antibody (Sigma) at 1:10,000 dilution. Bound IgG was detected by ECL. For quantitative immunoblotting, secondary antibodies labeled with IRDye® infrared dyes and an Odyssey® infrared imager (LI-COR Biosciences) were used following the manufacturer's instructions.

progranulin [2] = assay: RT PCR of progranulin mRNA and pre-mRNA in Neuro2A cells; format: cell-based, mouse; details: 48 hours, increasing concentrations
Protocol: FIG. 2. Neuro2A cells were treated for 48 hours with increasing concentrations of Isoxazole. RT PCR was conducted to measure increases in progranulin mRNA and pre-mRNA (hnRNA before splicing).
RNA Extraction and Quantitative PCR. Cells in 6-well plates were lysed in 500 μl of TRIzol® reagent/well. cDNA was reverse-transcribed with MultiScribe™ (Applied Biosystems). For some experiments, the Quick-RNA MiniPrep system (Zymo Research, Irvine, Calif.) was used to isolate total RNA. Primer sequences were as follows:
Quantitative PCRs (qPCRs; 10 μl) contained 20 ng of cDNA, 150 nM primer, and 5 μl of Fast SYBR Green PCR Master Mix (Applied Biosystems) and were performed in triplicate on an Applied Biosystems PRISM 7500 Fast sequence detection system. Relative mRNA levels were calculated using U36B or cyclophilin Q primers as internal controls.

progranulin (PGRN) = assay: Progranulin (PGRN) protein expression in Neuro2a whole cell lysates by immunoblotting; format: cell-based, mouse; details: Neuro2a cells, 48 hours; for PGRN levels compared to DMSO: highest concentrations, N=4; for progranulin protein levels by immunoblotting: increasing doses, whole cell lysates
Protocol: FIG. 6. Protein analysis using immuoblotting. Neuro2a cells were treated with in increasing doses for 48 hours and whole cell lysates were analyzed for progranulin (PGRN) protein expression using immunobloting. N=4.
FIG. 7. Graphical analysis of protein quantification using immunoblotting. Whole cell lysates were analyzed for progranulin (PGRN) protein expression using immunoblotting and were graphically plotted to show changes in band intensity. PGRN levels doubled compared to DMSO at the highest concentrations. N=4.
Immunoblotting and Quantification. Cells were lysed in radioimmune precipitation assay buffer (50 mM Tris-HCl (pH 7.4), 150 mM NaCl, 1 mM EDTA, 1% Triton X-100, 1% sodium deoxycholate, 0.1% SDS, and Roche Complete protease inhibitor mixture) and cleared by centrifugation at 20,000×g for 10 min. 0.5-ml cell culture supernatants containing 1% FBS were concentrated by centrifugation at 14,000×g for 50 min in Millipore Amicon Ultra devices (3-kDa cutoff). 15-20 μg of total protein was separated by SDS-PAGE and transferred to nitrocellulose membranes. Membranes were blocked in 5% milk for 1 hr and probed overnight with primary antibodies at 4° C. Mouse progranulin was detected with linker-3 anti-progranulin antibody at 1:5000 dilution, β-actin with anti-β-actin antibody (Sigma A2228) at 1:5000 dilution, human progranulin with anti-PC cell-derived growth factor antibody (Invitrogen) at 1:1000 dilution, and GAPDH with anti-GAPDH antibody (Sigma) at 1:10,000 dilution. Bound IgG was detected by ECL. For quantitative immunoblotting, secondary antibodies labeled with IRDye® infrared dyes and an Odyssey® infrared imager (LI-COR Biosciences) were used following the manufacturer's instructions.

Progranulin MEF cells = assay: Lysosome rescue (lysotracker) in Progranulin MEF cells; format: cell-based, mouse; details: one concentration, one trial
Protocol: FIGS. 8A-8F. Dose Tested for Lysosome Rescue. Progranulin MEF cells were treated with 1 concentration each of C15 and C19 and levels of lysotracker were analyzed to look for reduction of lysosome levels back to wild type levels. The stained area per cell is measured for compound C15 (FIG. 8A) and C19 (FIG. 8B), area intensity for compound C15 (FIG. 8C) and C19 (FIG. 8D), and total number of lysosomes for compound C15 (FIG. 8E) and C19 (FIG. 8F).
Progranulin MEF cells were treated with one aliquot each of C15 and C19 and levels of lysotracker were analyzed to look for reduction of lysosome levels back to wild type levels.

SMILES	Luciferase activity over DMSO control (progranulin promoter)	PGRN levels compared to DMSO (progranulin (PGRN))	progranulin protein levels by immunoblotting (progranulin (PGRN))	further results
c1cnoc1 [Isoxazole]	significant increase over control			Progranulin protein levels vs DMSO control (Progranulin [1]): significant increase over the DMSO control; progranulin mRNA (progranulin [2]): significant increases in a dose dependent manner; progranulin pre-mRNA (hnRNA before splicing) (progranulin [2]): significant increases in a dose dependent manner
CCCCCCCCCCCCC/C=C/[C@@H](O)[C@@H](N)COP(=O)([O-])OCC[N+](C)(C)C [sphingosinephosphorylcholine, reference compound]	increasing levels of luciferase activity over DMSO control			
CC(C)(C)c1cc2c(c(C(C)(C)C)c1)OC(c1cccc([N+](=O)[O-])c1O)N2 (stereo not shown) [Compound C19]	only a small change	doubled	increased progranulin protein levels	lysosome levels (lysotracker) (Progranulin MEF cells): marked decrease in lysosome levels
COc1ccccc1C(=O)NNC1C(=O)Nc2ccccc21 (stereo not shown) [Compound C15]	dose dependent increase in luciferase activity	doubled	increased progranulin protein levels	
O=C(CCCCCCC(=O)Nc1ccccc1)NO [SAHA, reference compound]				Activation of luciferase reporter relative to base line (DMSO) (progranulin promoter; Neuro-2a #48 cells, SAHA 3 μM positive control, 24 hrs): 4-5 times base line
